Patent US8846669B2, “Oxazolidinone derivative and medical composition containing same” (Legochem Biosciences, Inc., priority 2011, dated 2014)
Values after ≈ are worked out from the molar mass of the structure shown. Where two headings read alike, the source gives them in different places.

Assays:
Experiment in all cases: In vitro antibacterial activity, broth microdilution MIC90
Type in all cases: cell-based
Enterococcus faecalis = system: Enterococcus faecalis
Protocol: (§1) MIC90 was measured by broth microdilution method based on CLSI standards [reference: Clinical and Laboratory Standards Institute Document. (2000) Methods for Dilution Antimicrobial Susceptibility Test for Bacteria that Grow Aerobically-Fifth Edition: M7-A5. CLSI, Villanova, Pa.].
(§2) Activities of 12 strains including Staphylococcus aureus, Methicillin Resistant Staphylococcus aureus, Staphylococcus epidermidis, Methicillin Resistant Staphylococcus epidermidis, Enterococcus faecalis, Vancomycin Resistant Enterococcus faecalis, Linezolid and Vancomycin Resistant Enterococcus faecalis, Enterococcus faecium, Vancomycin Resistant Enterococcus faecium, Linezolid and Vancomycin Resistant Enterococcus faecium, and Moraxella catarrhalis, were measured, and results are shown in Table 1 below.
(§3) The final concentration of test material in the antibacterial test was from 0.063 μg/mL (minimum) to 128 μg/mL (maximum), and the final concentration of DMSO used as an excipient was 2.5% (V/V). Linezolid represented by Formula B below (manufactured by Pfizer) was used as a control and bacterial activity thereof was compared with those of the test materials.

Enterococcus faecium = system: Enterococcus faecium
Protocol: as §1, §2, §3

[1] = system: Linezolid and Vancomycin Resistant Enterococcus faecalis
Protocol: as §1, §2, §3

[2] = system: Linezolid and Vancomycin Resistant Enterococcus faecium (strain 10)
Protocol: as §1, §2, §3

[3] = system: Linezolid and Vancomycin Resistant Enterococcus faecium (strain 11)
Protocol: as §1, §2, §3

[4] = system: Methicillin Resistant Staphylococcus aureus
Protocol: as §1, §2, §3

[5] = system: Methicillin Resistant Staphylococcus epidermidis
Protocol: as §1, §2, §3

Moraxella catarrhalis = system: Moraxella catarrhalis
Protocol: as §1, §2, §3

Staphylococcus aureus = system: Staphylococcus aureus
Protocol: as §1, §2, §3

[6] = system: Staphylococcus epidermidis
Protocol: as §1, §2, §3

[7] = system: Vancomycin Resistant Enterococcus faecalis
Protocol: as §1, §2, §3

[8] = system: Vancomycin Resistant Enterococcus faecium
Protocol: as §1, §2, §3

[9] = Enterococcus faecalis, strain 5, E. faecalis, read-out: MIC90
[10] = Enterococcus faecium, strain 8, E. faecium, read-out: MIC90
[11] = Enterococcus faecalis, strain 7, E. faecalis VanA LR, read-out: MIC90
[12] = Enterococcus faecium, strain 10, E. faecium VanA LR, read-out: MIC90
[13] = Enterococcus faecium, strain 11, E. faecium VanA LR, read-out: MIC90
[14] = Staphylococcus aureus, strain 2, S. aureus MR, read-out: MIC90
[15] = Staphylococcus epidermidis, strain 4, S. epidermidis MR, read-out: MIC90
[16] = Moraxella catarrhalis, strain 12, M. catarrhalis, read-out: MIC90
[17] = Staphylococcus aureus, strain 1, S. aureus, read-out: MIC90
[18] = Staphylococcus epidermidis, strain 3, S. epidermidis, read-out: MIC90
[19] = Enterococcus faecalis, strain 6, E. faecalis VanA, read-out: MIC90
[20] = Enterococcus faecium, strain 9, E. faecium VanA, read-out: MIC90

Row | Compound | MIC90 (Enterococcus faecalis; strain 5, E. faecalis) | MIC90 (Enterococcus faecium; strain 8, E. faecium) | MIC90 ([1]; strain 7, E. faecalis VanA LR) | MIC90 ([2]; strain 10, E. faecium VanA LR) | MIC90 ([3]; strain 11, E. faecium VanA LR) | MIC90 ([4]; strain 2, S. aureus MR) | MIC90 ([5]; strain 4, S. epidermidis MR) | MIC90 (Moraxella catarrhalis; strain 12, M. catarrhalis) | MIC90 (Staphylococcus aureus; strain 1, S. aureus) | MIC90 ([6]; strain 3, S. epidermidis) | MIC90 ([7]; strain 6, E. faecalis VanA) | MIC90 ([8]; strain 9, E. faecium VanA) | MIC90 (Enterococcus faecalis; [9]) | MIC90 (Enterococcus faecium; [10]) | MIC90 [1, 11] | MIC90 [2, 12] | MIC90 [3, 13] | MIC90 [4, 14] | MIC90 [5, 15] | MIC90 (Moraxella catarrhalis; [16]) | further results
1 | O=C(CO)N1CCN(c2ccc(-c3ccc(N4C[C@H](COc5ccon5)OC4=O)cc3F)cn2)C=N1 [Compound 46] | 2 µg/mL (≈ 4.03 µM) | 0.5 µg/mL (≈ 1.01 µM) | 128 µg/mL (≈ 258 µM) | 128 µg/mL (≈ 258 µM) | >128 µg/mL | 0.5 µg/mL (≈ 1.01 µM) | 32 µg/mL (≈ 64.5 µM) | >128 µg/mL | 0.25 µg/mL (≈ 0.504 µM) | 0.5 µg/mL (≈ 1.01 µM) | 4 µg/mL (≈ 8.06 µM) | 2 µg/mL (≈ 4.03 µM) |  |  |  |  |  |  |  |  | 
2 | Cl.NCC(=O)N1CCN(c2ccc(-c3ccc(N4C[C@H](COc5ccon5)OC4=O)cc3F)cn2)C=N1 [Compound 48] | 4 µg/mL | 1 µg/mL | 32 µg/mL | 16 µg/mL | 32 µg/mL | 1 µg/mL | 4 µg/mL | 32 µg/mL | 0.5 µg/mL | 1 µg/mL | 4 µg/mL | 2 µg/mL |  |  |  |  |  |  |  |  | 
3 | O=C(C(O)CO)N1CCN(c2ccc(-c3ccc(N4C[C@H](COc5ccon5)OC4=O)cc3F)cn2)C=N1 (stereo partly shown) [Compound 50] | 2 µg/mL (≈ 3.8 µM) | 0.5 µg/mL (≈ 0.95 µM) | 16 µg/mL (≈ 30.4 µM) | 16 µg/mL (≈ 30.4 µM) | 32 µg/mL (≈ 60.8 µM) | 1 µg/mL (≈ 1.9 µM) | 4 µg/mL (≈ 7.6 µM) | >128 µg/mL | 0.5 µg/mL (≈ 0.95 µM) | 1 µg/mL (≈ 1.9 µM) | 4 µg/mL (≈ 7.6 µM) | 2 µg/mL (≈ 3.8 µM) |  |  |  |  |  |  |  |  | 
4 | O=C(O)CN1CCN(c2ccc(-c3ccc(N4C[C@H](COc5ccon5)OC4=O)cc3F)cn2)C=N1 [Compound 51] | 4 µg/mL (≈ 8.06 µM) | 1 µg/mL (≈ 2.01 µM) | 16 µg/mL (≈ 32.2 µM) | 32 µg/mL (≈ 64.5 µM) | 32 µg/mL (≈ 64.5 µM) | 1 µg/mL (≈ 2.01 µM) | 4 µg/mL (≈ 8.06 µM) | >128 µg/mL | 0.5 µg/mL (≈ 1.01 µM) | 1 µg/mL (≈ 2.01 µM) | 4 µg/mL (≈ 8.06 µM) | 4 µg/mL (≈ 8.06 µM) |  |  |  |  |  |  |  |  | 
5 | CC(=O)NC[C@H]1CN(c2ccc(-c3ccc(N4CCN(C=O)C=N4)nc3)c(F)c2)C(=O)O1 [Compound 52] |  |  |  |  |  |  |  |  |  |  |  |  | 0.5 µg/mL (≈ 1.14 µM) | 0.5 µg/mL (≈ 1.14 µM) | 1 µg/mL (≈ 2.27 µM) | 1 µg/mL (≈ 2.27 µM) | 1 µg/mL (≈ 2.27 µM) | 0.5 µg/mL (≈ 1.14 µM) | 0.5 µg/mL (≈ 1.14 µM) | 4 µg/mL (≈ 9.08 µM) | MIC90 (Staphylococcus aureus; [17]): 0.25 µg/mL (≈ 0.568 µM); MIC90 [6, 18]: 0.25 µg/mL (≈ 0.568 µM); MIC90 [7, 19]: 0.5 µg/mL (≈ 1.14 µM); MIC90 [8, 20]: 0.5 µg/mL (≈ 1.14 µM)
6 | CC(=O)NC[C@H]1CN(c2ccc(-c3ccc(N4CCNC=N4)nc3)c(F)c2)C(=O)O1 [Compound 53] |  |  |  |  |  |  |  |  |  |  |  |  |  |  |  |  |  |  |  |  | MIC90 (Enterococcus faecalis; Enterococcus faecalis): 1 µg/mL (≈ 2.42 µM); MIC90 (Enterococcus faecium; Enterococcus faecium): 1 µg/mL (≈ 2.42 µM); MIC90 ([1]; Enterococcus faecalis): 4 µg/mL (≈ 9.7 µM); MIC90 ([2]; Enterococcus faecium): 4 µg/mL (≈ 9.7 µM); MIC90 ([3]; Enterococcus faecium): 4 µg/mL (≈ 9.7 µM); MIC90 ([4]; Staphylococcus aureus): 2 µg/mL (≈ 4.85 µM); MIC90 ([5]; Staphylococcus epidermidis): 2 µg/mL (≈ 4.85 µM); MIC90 (Moraxella catarrhalis; Moraxella catarrhalis): 4 µg/mL (≈ 9.7 µM); MIC90 (Staphylococcus aureus; Staphylococcus aureus): 1 µg/mL (≈ 2.42 µM); MIC90 ([6]; Staphylococcus epidermidis): 1 µg/mL (≈ 2.42 µM); MIC90 ([7]; Enterococcus faecalis): 1 µg/mL (≈ 2.42 µM); MIC90 ([8]; Enterococcus faecium): 1 µg/mL (≈ 2.42 µM)
7 | CC(=O)NC[C@H]1CN(c2ccc(-c3ccc(N4CCN(C(=O)CO)C=N4)nc3)c(F)c2)C(=O)O1 [Compound 54] |  |  |  |  |  |  |  |  |  |  |  |  |  |  |  |  |  |  |  |  | MIC90 (Enterococcus faecalis; Enterococcus faecalis): 0.063 µg/mL (≈ 0.134 µM); MIC90 (Enterococcus faecium; Enterococcus faecium): 0.25 µg/mL (≈ 0.531 µM); MIC90 ([1]; Enterococcus faecalis): 0.5 µg/mL (≈ 1.06 µM); antibacterial activity against linezolid-resistant bacteria (in words) ([1]; Enterococcus faecalis and Enterococcus faecium which are resistant to linezolid): very high antibacterial activity; MIC90 ([2]; Enterococcus faecium): 0.5 µg/mL (≈ 1.06 µM); MIC90 ([3]; Enterococcus faecium): 0.5 µg/mL (≈ 1.06 µM); MIC90 ([4]; Staphylococcus aureus): 0.5 µg/mL (≈ 1.06 µM); MIC90 ([5]; Staphylococcus epidermidis): 0.5 µg/mL (≈ 1.06 µM); MIC90 (Moraxella catarrhalis; Moraxella catarrhalis): 1 µg/mL (≈ 2.13 µM); MIC90 (Staphylococcus aureus; Staphylococcus aureus): 0.25 µg/mL (≈ 0.531 µM); MIC90 ([6]; Staphylococcus epidermidis): 0.125 µg/mL (≈ 0.266 µM); MIC90 ([7]; Enterococcus faecalis): 0.063 µg/mL (≈ 0.134 µM); MIC90 ([8]; Enterococcus faecium): 0.063 µg/mL (≈ 0.134 µM)
8 | CCN1C=NN(c2ccc(-c3ccc(N4C[C@H](CNC(C)=O)OC4=O)cc3F)cn2)CC1 [Compound 56] |  |  |  |  |  |  |  |  |  |  |  |  | 1 µg/mL (≈ 2.27 µM) | 1 µg/mL (≈ 2.27 µM) | 4 µg/mL (≈ 9.08 µM) | 4 µg/mL (≈ 9.08 µM) | 4 µg/mL (≈ 9.08 µM) | 4 µg/mL (≈ 9.08 µM) | 2 µg/mL (≈ 4.54 µM) | 2 µg/mL (≈ 4.54 µM) | MIC90 (Staphylococcus aureus; [17]): 1 µg/mL (≈ 2.27 µM); MIC90 [6, 18]: 1 µg/mL (≈ 2.27 µM); MIC90 [7, 19]: 2 µg/mL (≈ 4.54 µM); MIC90 [8, 20]: 1 µg/mL (≈ 2.27 µM)
9 | CC(=O)NC[C@H]1CN(c2ccc(-c3ccc(N4C=NOCC4)nc3)c(F)c2)C(=O)O1 [Compound 57] |  |  |  |  |  |  |  |  |  |  |  |  | 0.25 µg/mL (≈ 0.605 µM) | 0.125 µg/mL (≈ 0.302 µM) | 1 µg/mL (≈ 2.42 µM) | 1 µg/mL (≈ 2.42 µM) | 2 µg/mL (≈ 4.84 µM) | 0.5 µg/mL (≈ 1.21 µM) | 0.5 µg/mL (≈ 1.21 µM) | 2 µg/mL (≈ 4.84 µM) | MIC90 (Staphylococcus aureus; [17]): 0.25 µg/mL (≈ 0.605 µM); MIC90 [6, 18]: 0.25 µg/mL (≈ 0.605 µM); MIC90 [7, 19]: 0.25 µg/mL (≈ 0.605 µM); MIC90 [8, 20]: 0.125 µg/mL (≈ 0.302 µM)
